Assays:
Type in all cases: cell-based
[1] = target: T1, human EGFR exon 20 insertion ASV (V769_D770insASV) (Homo sapiens, UniProt P00533, INS769ASV); test: Ba/F3-EGFR-Exon20-ASV cell anti-proliferative assay (CellTiter 96 MTS, 72 h); settings: Ba/F3-EGFR-Exon20-ASV cells
T1 construct: expressed in transfected cells; host or cells: Ba/F3 (murine pro-B) cells transduced with lentivirus from pLVX-IRES puro
Procedure: (§1) An expression vector, pLVX-IRES puro (Clontech) coding for human EGFR exon 20 insertions NPG (H773_V774insNPG) or ASV (V769_D770insASV), was transfected into HEK293 cells by the Trans-Lentiviral ORF Packaging System (Thermo Scientific), to produce virus encoding EGFR exon 20 insertions. Ba/F3 (DSMZ) cells maintained in RPMI 1640 medium supplemented with 10% fetal bovine serum, 200 μM L-glutamine/l 200 μg/mL penicillin/200 μg/mL streptomycin (Life Technology) and 10 ng/mL IL-3 (R&D system), were infected by EGFR Exon20 virus and subsequently selected by puromycin (Life Technology) selection and IL-3 depletion. […] The anti-proliferative activity of compounds were determined as follows: BaF3-EGFR-Exon20 cells (NPG or ASV) seeded in 96 well plates (2500 cells/well) were treated with test compound (dissolved in DMSO) at a series of concentrations (4-fold dilution, top concentration: 10,000 nM). The plates were incubated for 72 h in a 37° C. incubator with 5% CO2, and the number of viable cells in each well were measured indirectly by CellTiter 96® Aqueous One Solution Cell Proliferation Assay (Promega) This assay is a colorimetric method for determining the number of viable cells through measurement of their metabolic activity by detection of enzymatic conversion of tetrazolium salts into blue formazan derivatives. Reagent (20 μL) was added into each well, and the plates were returned to the incubator for 2 h. The absorbance in each well was then measured at 490 nm using an Envision plate reader (Perkin Elmer).

[2] = target: T2, human EGFR E746-A750 deletion and T790M Mutation (Homo sapiens, UniProt P00533, DEL746-750/T790M); test: Ba/F3-EGFR-Del/T790M cell anti-proliferative assay (CellTiter 96 MTS, 72 h); settings: Ba/F3-EGFR-Del/T790M cells
T2 construct: expressed in transfected cells; host or cells: Ba/F3 (murine pro-B) cells transduced with lentivirus from pLVX-IRES puro
T2 sequence (P00533 with tags, fused parts or gaps DEL746-750/T790M): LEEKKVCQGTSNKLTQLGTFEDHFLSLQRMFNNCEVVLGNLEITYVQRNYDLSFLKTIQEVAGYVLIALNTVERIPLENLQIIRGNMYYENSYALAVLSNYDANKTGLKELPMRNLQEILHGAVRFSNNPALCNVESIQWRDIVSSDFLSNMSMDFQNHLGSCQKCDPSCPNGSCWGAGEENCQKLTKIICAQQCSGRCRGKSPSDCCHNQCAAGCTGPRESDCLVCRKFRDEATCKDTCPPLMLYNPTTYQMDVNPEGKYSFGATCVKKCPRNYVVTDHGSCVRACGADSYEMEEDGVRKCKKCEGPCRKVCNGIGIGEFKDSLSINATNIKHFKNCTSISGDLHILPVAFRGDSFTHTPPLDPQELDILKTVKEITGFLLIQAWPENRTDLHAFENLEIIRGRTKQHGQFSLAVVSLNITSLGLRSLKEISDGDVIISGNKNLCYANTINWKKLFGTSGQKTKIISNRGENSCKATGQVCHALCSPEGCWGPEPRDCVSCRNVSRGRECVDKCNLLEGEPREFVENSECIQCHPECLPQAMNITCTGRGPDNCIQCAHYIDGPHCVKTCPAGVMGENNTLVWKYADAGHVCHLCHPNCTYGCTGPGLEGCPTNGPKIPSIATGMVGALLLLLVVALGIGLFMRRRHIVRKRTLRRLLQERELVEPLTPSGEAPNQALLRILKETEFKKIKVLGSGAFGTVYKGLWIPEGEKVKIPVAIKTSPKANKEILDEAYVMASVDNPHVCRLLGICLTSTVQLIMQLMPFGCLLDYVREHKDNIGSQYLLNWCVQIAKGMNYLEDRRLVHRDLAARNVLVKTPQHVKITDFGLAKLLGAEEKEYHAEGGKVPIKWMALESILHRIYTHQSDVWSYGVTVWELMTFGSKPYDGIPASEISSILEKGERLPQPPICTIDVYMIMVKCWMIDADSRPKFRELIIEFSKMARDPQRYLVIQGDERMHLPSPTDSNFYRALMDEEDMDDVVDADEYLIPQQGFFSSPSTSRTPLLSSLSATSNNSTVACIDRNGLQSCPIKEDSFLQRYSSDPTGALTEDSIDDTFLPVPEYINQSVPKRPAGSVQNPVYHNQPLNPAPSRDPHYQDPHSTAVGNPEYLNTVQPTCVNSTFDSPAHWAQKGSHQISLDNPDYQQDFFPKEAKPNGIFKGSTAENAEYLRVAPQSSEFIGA
Procedure: An expression vector, pLVX-IRES puro (Clontech) coding for human EGFR E746-A750 deletion and T790M Mutation, was transfected into HEK293 cells by the Trans-Lentiviral ORF Packaging System (Thermo Scientific), to produce virus encoding EGFR exon 19 deletion and T790M mutations. Ba/F3 (DSMZ) cells maintained in RPMI 1640 medium supplemented with 10% fetal bovine serum, 200 μM L-glutamine/200 μg/mL penicillin/200 μg/mL streptomycin (Life Technology) and 10 ng/mL IL-3 (R&D system), were infected by EGFR E746-A750 deletion and T790M Mutation virus and subsequently selected by puromycin (Life Technology) selection and IL-3 depletion. […] The anti-proliferative activity of compounds was determined as follows: BaF3-EGFR-Del/T790M cells seeded in 96 well plates (2500 cells/well) were treated with test compound (dissolved in DMSO) at a series of concentrations (4-fold dilution, top concentration: 10,000 nM). The plates were incubated for 72 h in a 37° C. incubator with 5% CO2, and the number of viable cells in each well were measured indirectly by CellTiter 96® Aqueous One Solution Cell Proliferation Assay (Promega; this assay is a colorimetric method for determining the number of viable cells through measurement of their metabolic activity by detection of enzymatic conversion of tetrazolium salts into blue formazan derivatives). Reagent (20 μL) was added into each well, and the plates were returned to the incubator for 2 h. The absorbance in each well was then measured at 490 nm using an Envision plate reader (Perkin Elmer).

[3] = target: T3, Her2 exon 20 YVMA insertion (A775_G776ins YVMA) (Homo sapiens, UniProt P04626, INS775YVMA); test: Ba/F3-Her2 Exon20 YVMA cell anti-proliferative assay (CellTiter 96 MTS, 72 h); settings: Ba/F3-Her2 Exon20 YVMA cells
T3 construct: expressed in transfected cells; host or cells: Ba/F3 (murine pro-B) cells transduced with lentivirus from pLVX-IRES puro
T3 sequence (P04626 with tags, fused parts or gaps INS775YVMA): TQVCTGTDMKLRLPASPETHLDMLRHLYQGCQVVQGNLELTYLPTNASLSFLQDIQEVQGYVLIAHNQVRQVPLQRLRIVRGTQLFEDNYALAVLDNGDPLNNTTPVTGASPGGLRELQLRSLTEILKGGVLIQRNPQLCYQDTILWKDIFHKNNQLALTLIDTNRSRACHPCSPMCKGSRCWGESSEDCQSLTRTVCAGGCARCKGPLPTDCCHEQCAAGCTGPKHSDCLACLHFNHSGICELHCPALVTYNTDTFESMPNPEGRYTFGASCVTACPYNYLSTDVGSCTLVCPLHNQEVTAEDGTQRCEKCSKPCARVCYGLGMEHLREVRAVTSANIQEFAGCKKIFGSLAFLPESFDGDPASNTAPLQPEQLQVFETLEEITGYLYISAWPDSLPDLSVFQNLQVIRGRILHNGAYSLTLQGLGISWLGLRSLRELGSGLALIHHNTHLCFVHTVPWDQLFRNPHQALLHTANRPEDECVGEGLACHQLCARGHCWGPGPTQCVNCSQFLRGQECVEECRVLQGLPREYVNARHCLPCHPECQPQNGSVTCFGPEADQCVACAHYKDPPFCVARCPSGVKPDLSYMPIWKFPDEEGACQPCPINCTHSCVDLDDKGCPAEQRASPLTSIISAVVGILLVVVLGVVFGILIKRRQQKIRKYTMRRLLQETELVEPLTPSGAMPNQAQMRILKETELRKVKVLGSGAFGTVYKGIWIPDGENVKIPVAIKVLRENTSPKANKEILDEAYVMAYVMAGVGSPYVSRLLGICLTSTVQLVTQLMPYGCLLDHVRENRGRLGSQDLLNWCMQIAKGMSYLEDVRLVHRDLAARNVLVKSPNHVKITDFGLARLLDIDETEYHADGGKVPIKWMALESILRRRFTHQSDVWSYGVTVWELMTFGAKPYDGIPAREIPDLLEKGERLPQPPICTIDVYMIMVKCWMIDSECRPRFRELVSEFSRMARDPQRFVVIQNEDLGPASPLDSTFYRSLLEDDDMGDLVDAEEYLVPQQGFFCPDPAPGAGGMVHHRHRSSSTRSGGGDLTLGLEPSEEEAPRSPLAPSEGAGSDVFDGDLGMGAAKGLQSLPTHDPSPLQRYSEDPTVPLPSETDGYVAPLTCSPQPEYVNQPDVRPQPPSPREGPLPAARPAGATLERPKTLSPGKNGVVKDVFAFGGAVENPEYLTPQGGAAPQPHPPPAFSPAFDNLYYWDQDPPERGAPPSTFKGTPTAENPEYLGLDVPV
Source text: A compound's ability in selectively inhibiting Her2 exon 20 YVMA insertion mutations can be assessed using Ba/F3 cells, a murine pro-B cell line, which have been transduced with Her2 Exon20 YVMA insertions. An expression vector, pLVX-IRES puro (Clontech) coding for […] (A775_G776ins YVMA), was transfected into HEK293 cells by the Trans-Lentiviral ORF Packaging System (Thermo Scientific), to produce virus encoding EGFR exon 20 insertions. Ba/F3 (DSMZ) cells maintained in RPMI 1640 medium supplemented with 10% fetal bovine serum, 200 μM L-glutamine/200 μg/mL penicillin/200 μg/mL streptomycin (Life Technology) and 10 ng/mL IL-3 (R&D system), were infected by EGFR Exon20 virus and subsequently selected by puromycin (Life Technology) selection and IL-3 depletion. Ba/F3 cells expressing Her2 Exon20 YVMA insertions (named Ba/F3-Her2 Exon20 YVMA) can proliferate in the absence of IL-3. The anti-proliferative activity of compounds was determined as follows: BaF3-Her2 Exon20 YVMA cells seeded in 96 well plates (2500 cells/well) were treated with test compound (dissolved in DMSO) at a series of concentrations (4-fold dilution, top concentration: 10,000 nM). The plates were incubated for 72 h in a 37° C. incubator with 5% CO2, and the number of viable cells in each well were measured indirectly by CellTiter 96@ Aqueous One Solution Cell Proliferation Assay (Promega; this assay is a colorimetric method for determining the number of viable cells through measurement of their metabolic activity by detection of enzymatic conversion of tetrazolium salts into blue formazan derivatives). Reagent (20 μL) was added into each well, and the plates were returned to the incubator for 2 h. The absorbance in each well was then measured at 490 nm using an Envision plate reader (Perkin Elmer).

[4] = target: T4, human EGFR exon 20 insertion NPG (H773_V774insNPG) (Homo sapiens, UniProt P00533, INS772GNP); test: Ba/F3-EGFR-Exon20-NPG cell anti-proliferative assay (CellTiter 96 MTS, 72 h); settings: Ba/F3-EGFR-Exon20-NPG cells
T4 construct: expressed in transfected cells; host or cells: Ba/F3 (murine pro-B) cells transduced with lentivirus from pLVX-IRES puro
T4 sequence (P00533 with tags, fused parts or gaps INS772GNP): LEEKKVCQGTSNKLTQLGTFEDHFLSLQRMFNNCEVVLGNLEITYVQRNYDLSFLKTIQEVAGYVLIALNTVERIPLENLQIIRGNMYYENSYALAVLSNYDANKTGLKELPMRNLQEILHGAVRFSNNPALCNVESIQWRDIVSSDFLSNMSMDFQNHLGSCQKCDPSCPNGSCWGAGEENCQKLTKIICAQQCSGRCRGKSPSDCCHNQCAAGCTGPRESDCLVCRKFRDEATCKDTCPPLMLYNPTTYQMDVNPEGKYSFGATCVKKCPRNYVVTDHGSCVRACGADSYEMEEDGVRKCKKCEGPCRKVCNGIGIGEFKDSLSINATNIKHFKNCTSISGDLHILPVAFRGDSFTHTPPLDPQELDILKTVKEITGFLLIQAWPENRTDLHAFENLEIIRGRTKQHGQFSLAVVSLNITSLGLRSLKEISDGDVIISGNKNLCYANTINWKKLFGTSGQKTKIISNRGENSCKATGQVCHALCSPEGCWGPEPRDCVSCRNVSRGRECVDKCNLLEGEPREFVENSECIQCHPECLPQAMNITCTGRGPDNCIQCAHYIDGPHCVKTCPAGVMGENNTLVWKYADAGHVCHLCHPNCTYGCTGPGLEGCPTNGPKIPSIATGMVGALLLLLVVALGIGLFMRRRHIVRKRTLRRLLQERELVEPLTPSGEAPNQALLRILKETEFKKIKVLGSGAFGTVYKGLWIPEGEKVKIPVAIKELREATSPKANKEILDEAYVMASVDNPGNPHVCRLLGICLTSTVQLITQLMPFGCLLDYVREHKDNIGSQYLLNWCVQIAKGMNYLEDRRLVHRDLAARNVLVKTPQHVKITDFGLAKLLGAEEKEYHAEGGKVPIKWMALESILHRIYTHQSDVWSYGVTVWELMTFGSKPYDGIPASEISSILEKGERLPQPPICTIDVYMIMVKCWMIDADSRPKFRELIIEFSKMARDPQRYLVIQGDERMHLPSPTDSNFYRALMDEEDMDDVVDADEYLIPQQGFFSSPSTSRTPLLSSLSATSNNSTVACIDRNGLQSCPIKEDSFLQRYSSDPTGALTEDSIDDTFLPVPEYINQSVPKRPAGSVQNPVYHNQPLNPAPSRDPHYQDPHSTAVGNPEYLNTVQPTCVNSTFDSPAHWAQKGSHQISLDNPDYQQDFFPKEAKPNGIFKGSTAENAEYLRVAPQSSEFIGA
Procedure: as §1

T1 sequence (P00533 with tags, fused parts or gaps INS769ASV): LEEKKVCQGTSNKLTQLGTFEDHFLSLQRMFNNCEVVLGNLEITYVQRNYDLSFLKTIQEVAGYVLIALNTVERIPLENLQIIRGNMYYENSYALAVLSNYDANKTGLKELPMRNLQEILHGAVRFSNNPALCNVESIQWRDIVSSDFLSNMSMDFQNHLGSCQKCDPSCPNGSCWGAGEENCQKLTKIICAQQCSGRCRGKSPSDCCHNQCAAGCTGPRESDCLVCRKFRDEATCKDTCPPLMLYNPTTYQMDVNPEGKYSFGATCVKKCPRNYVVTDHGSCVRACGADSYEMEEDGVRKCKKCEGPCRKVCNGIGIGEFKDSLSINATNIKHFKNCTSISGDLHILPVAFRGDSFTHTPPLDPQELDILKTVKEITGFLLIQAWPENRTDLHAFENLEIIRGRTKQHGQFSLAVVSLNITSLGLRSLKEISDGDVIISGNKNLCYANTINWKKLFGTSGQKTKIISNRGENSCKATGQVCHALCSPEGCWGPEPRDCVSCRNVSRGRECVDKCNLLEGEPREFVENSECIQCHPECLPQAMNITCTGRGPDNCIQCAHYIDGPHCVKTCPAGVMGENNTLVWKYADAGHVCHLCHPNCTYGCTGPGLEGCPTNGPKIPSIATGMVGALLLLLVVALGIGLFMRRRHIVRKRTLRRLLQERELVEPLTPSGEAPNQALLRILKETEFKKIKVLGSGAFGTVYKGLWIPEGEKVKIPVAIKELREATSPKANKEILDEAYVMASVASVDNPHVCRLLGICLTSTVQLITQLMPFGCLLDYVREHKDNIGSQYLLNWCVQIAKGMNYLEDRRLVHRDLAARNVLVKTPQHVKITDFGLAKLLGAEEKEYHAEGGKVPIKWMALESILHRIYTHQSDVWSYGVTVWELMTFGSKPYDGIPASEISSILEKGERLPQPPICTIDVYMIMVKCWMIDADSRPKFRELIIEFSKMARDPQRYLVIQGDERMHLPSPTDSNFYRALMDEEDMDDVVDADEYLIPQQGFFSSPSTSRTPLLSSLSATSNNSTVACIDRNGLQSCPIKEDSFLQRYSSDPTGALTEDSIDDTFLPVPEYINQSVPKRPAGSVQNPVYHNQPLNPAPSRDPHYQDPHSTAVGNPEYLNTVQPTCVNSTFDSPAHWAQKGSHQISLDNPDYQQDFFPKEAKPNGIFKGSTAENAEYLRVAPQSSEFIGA

Row | Compound | IC50 [1] [nM] | IC50 [3] [nM] | IC50 [4] [nM] | EGFR exon 19 deletion and exon 20 T790M mutation IC50 [2]
1 | C=CC(=O)Nc1cc(Nc2ncc(C#N)c(-c3cn4c5c(cccc35)OCC4)n2)c(OC)cc1N1CC(N(C)C)C1 [Example 6, N-(5-((5-cyano-4-(2,3-dihydro-[1,4]oxazino[2,3,4-hi]indol-6-yl)pyrimidin-2-yl)amino)-2-(3-(dimethylamino)azetidin-1-yl)-4-methoxyphenyl)acrylamide] | 100 to 500 | 100 to 500 | < 100 | A (IC50 value for the indicated mutant below about 100 nM)
2 | C=CC(=O)Nc1cc(Nc2ncc(CCC3CCCC3)c(-c3cn4c5c(cccc35)CCC4)n2)c(OC)cc1N(C)CCN(C)C [Example 35] | 500 to 1000 | 500 to 1000 | 100 to 500 | C (IC50 value for the indicated mutant between greater than about 500 to about 1 μM)
3 | C=CC(=O)Nc1cc(Nc2ncc(C(=O)CC)c(-c3cn4c5c(cccc35)CCC4)n2)c(OC)cc1N(C)CCN(C)C [Example 88] | < 100 | < 100 | < 100 | A (IC50 value for the indicated mutant below about 100 nM)
4 | C=CC(=O)Nc1cc(Nc2ncc(C(=O)NC)c(-c3nn4c5c(cccc35)OCC4)n2)c(OC)cc1N(C)CCN(C)C [Example 67] | > 1000 | > 1000 | > 1000 | D (IC50 value for the indicated mutant greater than about 1 μM)
5 | C=CC(=O)Nc1cc(Nc2nccc(-c3c(N4CCC(OC)C4)n4c5c(cccc35)CCC4)n2)c(OC)cc1N(C)CCN(C)C (centres unmarked) [Example 90] | 100 to 500 | 100 to 500 | < 100 | A (IC50 value for the indicated mutant below about 100 nM)
6 | C=CC(=O)Nc1cc(Nc2ncc(C#N)c(-c3cn4c5c(cccc35)CCC4)n2)c(OC)cc1N1CC[C@H](N(C)C)C1 [Example 16, (S)-N-(5-((5-cyano-4-(5,6-dihydro-4H-pyrrolo[3,2,1-ij]quinolin-1-yl)pyrimidin-2-yl)amino)-2-(3-(dimethylamino)pyrrolidin-1-yl)-4-methoxyphenyl)acrylamide] | < 100 | 100 to 500 | < 100 | A (IC50 value for the indicated mutant below about 100 nM)
7 | C=CC(=O)Nc1cc(Nc2ncc(C(=O)OC(C)C)c(-c3cn4c5c(cccc35)CCC4)n2)c(OC)cc1N(C)CCN(C)C [Example 103] | < 100 | < 100 | < 100 | A (IC50 value for the indicated mutant below about 100 nM)

Now from value to molecule, other results behind:

Row | IC50 [1] [nM] | IC50 [3] [nM] | IC50 [4] [nM] | Compound | EGFR exon 19 deletion and exon 20 T790M mutation IC50 [2]
8 | < 100 | 100 to 500 | < 100 | C=CC(=O)Nc1cc(Nc2ncc(C#N)c(-c3cn4c5c(cccc35)OCC4)n2)c(OC)cc1N1CC[C@@H](N(C)C)C1 [Example 5, (R)-N-(5-((5-cyano-4-(2,3-dihydro-[1,4]oxazino[2,3,4-hi]indol-6-yl)pyrimidin-2-yl)amino)-2-(3-(dimethylamino)pyrrolidin-1-yl)-4-methoxyphenyl)acrylamide] | A (IC50 value for the indicated mutant below about 100 nM)
9 | < 100 | 100 to 500 | < 100 | C=CC(=O)Nc1cc(Nc2ncc(-c3ncnn3C)c(-c3cn4c5c(cccc35)CCC4)n2)c(OC)cc1N(C)CCN(C)C [Example 111] | A (IC50 value for the indicated mutant below about 100 nM)
10 | < 100 | < 100 | < 100 | C=CC(=O)Nc1cc(Nc2ncc(-c3cn(C)nc3C)c(-c3cn4c5c(cccc35)CCC4)n2)c(OC)cc1N(C)CCN(C)C [Example 100] | A (IC50 value for the indicated mutant below about 100 nM)
11 | < 100 | < 100 | < 100 | C=CC(=O)Nc1cc(Nc2ncc(-c3nnco3)c(-c3cn4c5c(cccc35)CCC4)n2)c(OC)cc1N(C)CCN(C)C [Example 71, N-(5-((4-(5,6-dihydro-4H-pyrrolo[3,2,1-ij]quinolin-1-yl)-5-(1,3,4-oxadiazol-2-yl)pyrimidin-2-yl)amino)-2-((2-(dimethylamino)ethyl)(methyl)amino)-4-methoxyphenyl)acrylamide] | A (IC50 value for the indicated mutant below about 100 nM)
12 | < 100 | 100 to 500 | < 100 | C=CC(=O)Nc1cc(Nc2ncc(CC)c(-c3cn4c5c(cccc35)CCC4)n2)c(OC)cc1N(C)CCN(C)C [Example 2, N-(5-((4-(5,6-dihydro-4H-pyrrolo[3,2,1-ij]quinolin-1-yl)-5-ethylpyrimidin-2-yl)amino)-2-((2-(dimethylamino)ethyl)(methyl)amino)-4-methoxyphenyl)acrylamide] | A (IC50 value for the indicated mutant below about 100 nM)
13 | < 100 | 100 to 500 | < 100 | C=CC(=O)Nc1cc(Nc2ncc(C(O)CC)c(-c3cn4c5c(cccc35)CCC4)n2)c(OC)cc1N(C)CCN(C)C (centres unmarked) [Example 73, N-(5-((4-(5,6-dihydro-4H-pyrrolo[3,2,1-ij]quinolin-1-yl)-5-(1-hydroxypropyl)pyrimidin-2-yl)amino)-2-((2-(dimethylamino)ethyl)-(methyl)amino)-4-methoxyphenyl)acrylamide] | A (IC50 value for the indicated mutant below about 100 nM)
14 | < 100 | < 100 | < 100 | C=CC(=O)Nc1cc(Nc2ncc(CCC#N)c(-c3cn4c5c(cccc35)CCC4)n2)c(OC)cc1N(C)CCN(C)C [Example 41, N-(5-((5-(2-cyanoethyl)-4-(5,6-dihydro-4H-pyrrolo[3,2,1-ij]quinolin-1-ul)pyrimidin-2-yl)amino)-2-((2-(dimethylamino)ethyl)(methyl)amino)-4-methoxyphenyl)acrylamide] | A (IC50 value for the indicated mutant below about 100 nM)
